Laboratory results from BigSolDB 2.1.

COc1cccc(-c2nn(-c3ccccc3)cc2/C=C/C(=O)c2nc3ccccc3[nH]2)c1
solubility (mole fraction)
Conditions | in acetonitrile | in ethanol | in ethyl acetate | in methanol | in n-butanol | in n-pentanol | in n-propanol
298.15 K | 2.91e-05 | 7.24e-05 | 0.000241 | 2.71e-05 | 0.00017 | 0.000227 | 0.000126
303.15 K | 4.16e-05 | 8.5e-05 | 0.000256 | 3.15e-05 | 0.000185 | 0.000274 | 0.000145
308.15 K | 5.87e-05 | 0.000106 | 0.000274 | 3.63e-05 | 0.000211 | 0.000312 | 0.000166
313.15 K | 7.62e-05 | 0.000121 | 0.000292 | 4.12e-05 | 0.00023 | 0.000381 | 0.000187
318.15 K | 9.21e-05 | 0.000136 | 0.000317 | 4.62e-05 | 0.000258 | 0.000427 | 0.000206
323.15 K | 0.000111 | 0.000148 | 0.000336 | 5.15e-05 | 0.000285 | 0.000457 | 0.000231
328.15 K | 0.000122 | 0.000165 | 0.000365 | 5.81e-05 | 0.000311 | 0.000499 | 0.000245

O=C(/C=C/c1cn(-c2ccccc2)nc1-c1ccccc1Cl)c1nc2ccccc2[nH]1
solubility (mole fraction)
Conditions | in acetonitrile | in ethanol | in ethyl acetate | in methanol | in n-butanol | in n-pentanol | in n-propanol
298.15 K | 1.78e-05 | 0.000105 | 0.00077 | 9.04e-05 | 0.000294 | 0.000354 | 0.000157
303.15 K | 6e-05 | 0.000125 | 0.00095 | 0.000116 | 0.00033 | 0.0004 | 0.000167
308.15 K | 0.000101 | 0.000145 | 0.00107 | 0.000133 | 0.000354 | 0.000448 | 0.000177
313.15 K | 0.00014 | 0.000157 | 0.0012 | 0.000149 | 0.0004 | 0.00051 | 0.000189
318.15 K | 0.000187 | 0.000179 | 0.00135 | 0.000168 | 0.000445 | 0.0006 | 0.000205
323.15 K | 0.00021 | 0.000195 | 0.00145 | 0.000187 | 0.0005 | 0.00069 | 0.00022
328.15 K | 0.000241 | 0.000217 | 0.00157 | 0.000209 | 0.000533 | 0.00074 | 0.000244

O=C(/C=C/c1cn(-c2ccccc2)nc1-c1ccccc1)c1nc2ccccc2[nH]1
solubility (mole fraction)
Conditions | in acetonitrile | in ethanol | in ethyl acetate | in methanol | in n-butanol | in n-pentanol | in n-propanol
298.15 K | 5.71e-05 | 8.48e-05 | 0.000159 | 5.54e-05 | 0.000248 | 0.000257 | 0.000135
303.15 K | 6.5e-05 | 9.4e-05 | 0.000195 | 6.53e-05 | 0.000275 | 0.000332 | 0.000152
308.15 K | 7.61e-05 | 0.000106 | 0.000243 | 8.08e-05 | 0.000299 | 0.000406 | 0.000179
313.15 K | 9.3e-05 | 0.000123 | 0.000312 | 8.83e-05 | 0.000335 | 0.000475 | 0.000189
318.15 K | 0.000102 | 0.000135 | 0.000362 | 9.87e-05 | 0.000374 | 0.000535 | 0.000215
323.15 K | 0.00012 | 0.000146 | 0.000403 | 0.000115 | 0.000425 | 0.000592 | 0.000226
328.15 K | 0.000132 | 0.00016 | 0.000463 | 0.000123 | 0.000465 | 0.000639 | 0.000255

O=C(/C=C/c1cn(-c2ccccc2)nc1-c1cccc([N+](=O)[O-])c1)c1nc2ccccc2[nH]1
solubility (mole fraction)
Conditions | in acetonitrile | in ethanol | in ethyl acetate | in methanol | in n-butanol | in n-pentanol | in n-propanol
298.15 K | 0.000103 | 5.53e-05 | 0.0013 | 4.04e-05 | 0.000202 | 0.000281 | 0.000115
303.15 K | 0.000123 | 6.2e-05 | 0.00149 | 4.85e-05 | 0.000236 | 0.000326 | 0.000135
308.15 K | 0.000148 | 7.01e-05 | 0.0017 | 5.5e-05 | 0.000279 | 0.000368 | 0.000164
313.15 K | 0.000163 | 8.42e-05 | 0.00194 | 5.9e-05 | 0.000324 | 0.000424 | 0.000175
318.15 K | 0.00019 | 9.46e-05 | 0.00217 | 6.59e-05 | 0.000359 | 0.000455 | 0.000206
323.15 K | 0.000216 | 0.000103 | 0.00244 | 7.4e-05 | 0.000402 | 0.000513 | 0.000226
328.15 K | 0.000232 | 0.000119 | 0.00277 | 8.21e-05 | 0.000445 | 0.000557 | 0.000251

COc1ccc(-c2nn(-c3ccccc3)cc2/C=C/C(=O)c2nc3ccccc3[nH]2)cc1OC
solubility (mole fraction)
Conditions | in acetonitrile | in ethanol | in ethyl acetate | in methanol | in n-butanol | in n-pentanol | in n-propanol
298.15 K | 0.000113 | 3.91e-05 | 0.000355 | 3.04e-05 | 0.00016 | 0.00031 | 0.000125
303.15 K | 0.000135 | 5e-05 | 0.000425 | 3.6e-05 | 0.000209 | 0.00033 | 0.00014
308.15 K | 0.000152 | 5.88e-05 | 0.000471 | 4.06e-05 | 0.000244 | 0.000354 | 0.00015
313.15 K | 0.00017 | 7.16e-05 | 0.00052 | 4.47e-05 | 0.00028 | 0.000375 | 0.000167
318.15 K | 0.000189 | 8.46e-05 | 0.000554 | 5.02e-05 | 0.000321 | 0.000395 | 0.000185
323.15 K | 0.00021 | 0.0001 | 0.00059 | 5.5e-05 | 0.00035 | 0.000412 | 0.0002
328.15 K | 0.00023 | 0.000111 | 0.000629 | 6.53e-05 | 0.00039 | 0.00043 | 0.00022

COc1ccc(-c2nn(-c3ccccc3)cc2/C=C/C(=O)c2nc3ccccc3[nH]2)cc1
solubility (mole fraction)
Conditions | in acetonitrile | in ethanol | in ethyl acetate | in methanol | in n-butanol | in n-pentanol | in n-propanol
298.15 K | 0.000165 | 0.000352 | 0.000809 | 0.000145 | 0.00133 | 0.00156 | 0.00049
303.15 K | 0.0002 | 0.000372 | 0.000826 | 0.000149 | 0.00136 | 0.00162 | 0.00052
308.15 K | 0.000227 | 0.000385 | 0.000846 | 0.000155 | 0.00138 | 0.00168 | 0.000541
313.15 K | 0.00025 | 0.000399 | 0.000868 | 0.00016 | 0.00142 | 0.00174 | 0.000565
318.15 K | 0.000282 | 0.00042 | 0.000886 | 0.000167 | 0.00145 | 0.00179 | 0.000586
323.15 K | 0.000301 | 0.00043 | 0.00091 | 0.00017 | 0.00149 | 0.00185 | 0.000615
328.15 K | 0.000329 | 0.000452 | 0.000935 | 0.000177 | 0.00151 | 0.00191 | 0.000628

O=C(/C=C/c1cn(-c2ccccc2)nc1-c1ccc(Cl)cc1)c1nc2ccccc2[nH]1
solubility (mole fraction)
Conditions | in acetonitrile | in ethanol | in ethyl acetate | in methanol | in n-butanol | in n-pentanol | in n-propanol
298.15 K | 0.000116 | 0.000102 | 0.000257 | 4.06e-05 | 0.00015 | 0.000253 | 8.35e-05
303.15 K | 0.000135 | 0.000113 | 0.00029 | 5.1e-05 | 0.000175 | 0.000275 | 0.000103
308.15 K | 0.000153 | 0.00012 | 0.000328 | 6.74e-05 | 0.000201 | 0.000304 | 0.000121
313.15 K | 0.000171 | 0.000132 | 0.000385 | 7.9e-05 | 0.000216 | 0.000354 | 0.000132
318.15 K | 0.000182 | 0.000148 | 0.000432 | 9.36e-05 | 0.00024 | 0.000387 | 0.00015
323.15 K | 0.000193 | 0.000155 | 0.000482 | 0.000105 | 0.000258 | 0.000423 | 0.000158
328.15 K | 0.000211 | 0.000172 | 0.000526 | 0.000117 | 0.000295 | 0.000442 | 0.000167
